Read-outs that look alike come from different tables or passages of the source.
Assays:
[1] = Drug exposure in mice; format: in vivo, C57/BL6 mice; conditions: oral gavage, 1-150 mpk, single dose and multiple dose (13 doses, BID)
Excerpt: Dose levels tested were 1 mpk, 10 mpk, 50 mpk, and 150 mpk. Following the last dose, mice were bled to evaluate drug exposure and pharmacodynamic markers including 2,3-DPG and ATP levels, and PKR activity. […]. […]

[2] = test system: PK-R
Method: (§1) Key exclusion criteria included glucose 6-phosphate dehydrogenase deficiency, blood donation, blood loss of greater than 500 mL, or transfusion of blood or plasma within three months of screening.

[3] = test system: PKD red cells; test: Ex-vivo treatment of PKD red cells; format: cell-based, human; conditions: PKD red cells treated ex-vivo
[4] = MAD study pharmacokinetics in healthy subjects
[5] = molecular target: PKR (Mus musculus, UniProt P53657)
Excerpt: Dose levels tested were 1 mpk, 10 mpk, 50 mpk, and 150 mpk. Following the last dose, mice were bled to evaluate drug exposure and pharmacodynamic markers including 2,3-DPG and ATP levels, and PKR activity.

[6] = test system: recombinantly expressed PKR mutant proteins; test: Activation of recombinantly expressed PKR mutant proteins; format: biochemical
[7] = SAD study pharmacokinetics in healthy subjects; format: in vivo, human; conditions: for half-life: oral
Method: . Key exclusion criteria included glucose 6-phosphate dehydrogenase deficiency, blood donation, blood loss of greater than 500 mL, or transfusion of blood or plasma within three months of screening.

[8] = test system: PKR reaction; test: PKR flux in whole blood from treated mice ([U-13C6]-glucose); format: in vivo, C57BL/6 mice; conditions: 100 mpk BID, 13 doses, oral gavage; kinetic flux model
Method: Whole blood was incubated with [U-^13C6]-glucose at 37° C. and the metabolite pool sizes and rate of ^13C label incorporation into glycolytic intermediates were assessed. The data were subsequently analyzed using a mathematical kinetic flux model to quantify the overall change in carbon flow through the PKR reaction.

[9] = MAD study safety and tolerability; conditions: doses between 360 and 700 not explored
Excerpt: (§2) Adverse events (AEs), laboratory parameters, ECGs, and vital signs were monitored.

[10] = in vivo
Excerpt: as §2

[11] = molecular target: cytochrome P450 3A4 (CYP3A4) (Homo sapiens, UniProt P08684); test: Pre-clinical CYP3A4 induction / metabolism; format: in vitro ADME
[12] = test system: PK-R; test: MAD study pharmacodynamics (blood 2,3-DPG and ATP)
[13] = SAD study safety and tolerability; format: in vivo, human
Method: as §1

[14] = single oral dose, 1, 10, 50, 150 mpk

PKR, sequence (P53657 whole entry): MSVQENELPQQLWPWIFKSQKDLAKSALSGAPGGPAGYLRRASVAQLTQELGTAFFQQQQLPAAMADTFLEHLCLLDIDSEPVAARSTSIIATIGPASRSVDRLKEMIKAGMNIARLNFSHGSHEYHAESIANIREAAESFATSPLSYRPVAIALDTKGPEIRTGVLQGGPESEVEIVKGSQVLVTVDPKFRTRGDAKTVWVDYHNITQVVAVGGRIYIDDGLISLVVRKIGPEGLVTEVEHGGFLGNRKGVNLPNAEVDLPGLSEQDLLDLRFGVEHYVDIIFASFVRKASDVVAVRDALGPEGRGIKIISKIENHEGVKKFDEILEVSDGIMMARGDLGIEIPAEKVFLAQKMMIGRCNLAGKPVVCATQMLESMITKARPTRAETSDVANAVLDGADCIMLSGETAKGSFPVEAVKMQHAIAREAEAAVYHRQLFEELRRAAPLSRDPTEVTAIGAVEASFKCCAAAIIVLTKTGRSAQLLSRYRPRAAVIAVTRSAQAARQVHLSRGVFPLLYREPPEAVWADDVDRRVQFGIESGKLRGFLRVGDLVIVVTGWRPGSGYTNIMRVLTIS
cytochrome P450 3A4 (CYP3A4), sequence (P08684 whole entry): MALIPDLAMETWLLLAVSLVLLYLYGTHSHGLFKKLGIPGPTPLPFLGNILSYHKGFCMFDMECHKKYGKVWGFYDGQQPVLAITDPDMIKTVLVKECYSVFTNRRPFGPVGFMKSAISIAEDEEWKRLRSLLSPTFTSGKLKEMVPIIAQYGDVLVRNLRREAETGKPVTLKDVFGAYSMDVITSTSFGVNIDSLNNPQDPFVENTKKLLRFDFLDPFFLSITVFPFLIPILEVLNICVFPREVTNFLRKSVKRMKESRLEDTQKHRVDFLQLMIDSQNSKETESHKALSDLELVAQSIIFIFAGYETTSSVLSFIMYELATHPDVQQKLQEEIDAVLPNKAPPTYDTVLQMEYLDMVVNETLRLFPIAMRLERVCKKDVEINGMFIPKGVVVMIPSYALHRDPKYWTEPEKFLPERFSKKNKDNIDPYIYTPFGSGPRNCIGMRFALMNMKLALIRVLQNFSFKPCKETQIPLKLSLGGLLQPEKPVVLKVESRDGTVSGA

## O=C(c1ccc(NS(=O)(=O)c2cccc3cccnc23)cc1)N1CCN(CC2CC2)CC1 [Compound 1, N-(4-(4-(cyclopropylmethyl)piperazine-1-carbonyl)phenyl)quinoline-8-sulfonamide]
[1]
  drug exposure: dose-proportional increase in exposure
[2]; after a single dose, SAD study
  blood ATP levels: minimal increases
[2]; after single dose
  time for 2,3-DPG to return to placebo levels: 72 h
[3]
  2,3-DPG levels: reduced 2,3-DPG levels
  ATP levels: increased ATP levels
  PKR enzyme activity levels: increased PKR enzyme activity levels
[4]; 15-700 mg q12h, 120 mg q24h
  plasma exposure: dose dependent
[4]; MAD cohorts 1 and 2 (120 mg BID, 360 mg BID)
  pharmacokinetic parameter values Day 14 compared with Day 1: lower on Day 14
[5]; multiple doses (13 doses, BID), 1, 10, 50, 150 mpk
  ATP levels in whole blood: robustly increased in a dose-dependent manner
[5]; [14]
  2,3-DPG levels in whole blood: reduction in 2,3-DPG levels
  ATP levels in whole blood: no significant changes
[6]; pre-clinical studies
  activity of mutated PK-R enzymes: increases the activity
[6]; recombinantly expressed PKR mutants associated with PKD
  protein stability of PKR mutant proteins: enhances the protein stability
[7]; both sexes, human, plasma, concentrations measured for 72 hours, read-out: mean apparent terminal half-life (t1/2)
  half-life: 17.5 to 20.5 h
[7]; both sexes, human, plasma, concentrations measured for 120 hours, read-out: mean apparent terminal half-life (t1/2)
  half-life: 50 to 80 h
[7]; both sexes, human, plasma, first 12 hours following dosing, read-out: apparent half-life of rapid distribution or elimination phase
  half-life: 2 to 4 h
[7]; both sexes, human, plasma, single oral dose, SAD cohorts, read-out: median Tmax
  Tmax: 0.75 to 4 h
[7]; fed vs fasted, preliminary results
  effect of food on exposure: minimal effect
[7]; single doses, SAD cohorts 1-6
  exposure (mean plasma Cmax, AUC0-12 hr and AUC0-72 hr): increased in a dose-proportional manner
[8]
  glycolytic flux through the PKR reaction: significantly increased
[9]
  highest well-tolerated dose: 360 mg q12h
[10]; both, human, 14 days
  dose at which gastrointestinal AEs occurred: 700 mg q12h
  severity of treatment-related AEs: mild or moderate (only 1 grade 3 event)
  subjects with related headache: 14%
  subjects with related nausea: 14%
  subjects with treatment related ≥1 AEs: 31%
  subjects with ≥1 AE: 44%
[10]
  number of discontinuations: four
[11]
  role of CYP3A4 in metabolism of the compound: major route of the oxidative metabolism
[11]; pre-clinical data
  CYP3A4 induction: moderate inducer
[12]; 12 hours following the first dose
  effect on ATP levels after first dose: minimal
[12]; Days 8-14, MAD cohorts 1 and 2
  ATP levels in the blood: substantial increases
[12]; after final dose, MAD cohorts 1 and 2
  2,3-DPG levels: decreases in 2,3-DPG levels
[12]; after the last dose, MAD cohorts 1 and 2
  time ATP levels remained elevated: ≥ 72 h
[12]; in vivo
  dose at which decrease in 2,3-DPG and increase in ATP plateau: 360 mg q12h
[12]; of dosing
  time for 2,3-DPG decrease to reach full extent: ≤ 7 days
  time for ATP increase to reach full extent: ≤ 10 days
[13]; SAD and 2 completed MAD cohorts
  serious AEs, discontinuations due to AEs, dose-limiting toxicities: no serious AEs, discontinuations due to AEs, or dose-limiting toxicities
[13]; single oral dose 30-2500 mg
  maximum tolerated dose: not reached
